Structures are written as SMILES. Some results are limits rather than exact numbers.

Chain of Human PDE10A1 (Q9Y233 1-779 isoform Q9Y233-1): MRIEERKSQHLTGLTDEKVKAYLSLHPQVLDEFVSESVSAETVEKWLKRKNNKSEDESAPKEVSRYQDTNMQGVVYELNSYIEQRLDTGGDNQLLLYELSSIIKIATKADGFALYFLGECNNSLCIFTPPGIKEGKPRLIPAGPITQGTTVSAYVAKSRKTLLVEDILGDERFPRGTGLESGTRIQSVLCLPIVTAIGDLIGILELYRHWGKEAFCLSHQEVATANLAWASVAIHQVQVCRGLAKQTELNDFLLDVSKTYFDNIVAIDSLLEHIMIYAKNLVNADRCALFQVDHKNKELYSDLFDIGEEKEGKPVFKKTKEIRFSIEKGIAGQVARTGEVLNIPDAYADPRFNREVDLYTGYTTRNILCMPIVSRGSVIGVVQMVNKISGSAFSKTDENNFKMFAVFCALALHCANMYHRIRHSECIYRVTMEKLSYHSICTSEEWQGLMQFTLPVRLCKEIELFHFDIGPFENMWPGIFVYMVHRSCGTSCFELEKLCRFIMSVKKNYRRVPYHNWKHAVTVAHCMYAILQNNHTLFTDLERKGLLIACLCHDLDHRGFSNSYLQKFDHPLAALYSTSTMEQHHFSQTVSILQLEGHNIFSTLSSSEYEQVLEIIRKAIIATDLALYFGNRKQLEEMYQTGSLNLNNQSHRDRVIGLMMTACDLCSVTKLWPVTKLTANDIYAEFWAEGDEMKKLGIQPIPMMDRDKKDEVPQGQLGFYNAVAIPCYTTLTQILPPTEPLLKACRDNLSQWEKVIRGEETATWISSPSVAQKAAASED

This test addresses Human PDE10A1 (Homo sapiens, UniProt Q9Y233). The experiment in a line: hPDE10A1 enzyme inhibition. The format is biochemical. The conditions noted are these: [3H]-cAMP substrate, 20 minutes at 37° C.; read-out: hPDE10A1 IC50 Band. As to the method: 50 μl samples of serially diluted Human PDE10A1 enzyme were incubated with 50 μl of [^3H]-cAMP for 20 minutes (at 37° C.). Reactions were carried out in Greiner 96 deep well 1 ml master-block. The enzyme was diluted in 20 mM Tris HCl pH7.4 and [^3H]-cAMP was diluted in 10 mM MgCl2, 40 mM Tris.HCl pH 7.4. The reaction was terminated by denaturing the PDE enzyme (at 70° C.) after which [^3H]-5′-AMP was converted to [^3H]-adenosine by adding 25 μl snake venom nucleotidase and incubating for 10 minutes (at 37° C.). Adenosine, being neutral, was separated from charged cAMP or AMP by the addition of 200 μl Dowex resin. Samples were shaken for 20 minutes then centrifuged for 3 minutes at 2,500 r.p.m. 50 μl of supernatant was removed and added to 200 μl of MicroScint-20 in white plates (Greiner 96-well Optiplate) and shaken for 30 minutes before reading on Perkin Elmer TopCount Scintillation Counter.
To check inhibition profile 11 μl of serially diluted inhibitor was added to 50 μl of [^3H]-cAMP and 50 ul of diluted Human PDE10A1 and assay was carried out as in the enzyme activity assay. Data was analysed using Prism software (GraphPad Inc).
`CN1C(=O)C(c2ccncc2)=C(c2ccc(OCc3ccc4ccccc4n3)cc2)C1=O` [Example 11, 1-methyl-3-(pyridin-4-yl)-4-(4-(quinolin-2-ylmethoxy)phenyl)-1H-pyrrole-2,5-dione]: the IC50 was > 50 nM.
Consider `CC1(C)OC(=O)C(c2ccc(OCc3ccc4ccccc4n3)cc2)=C1c1ccncc1` [Example 23, 5,5-dimethyl-4-(pyridin-4-yl)-3-(4-(quinolin-2-ylmethoxy)phenyl)furan-2(5H)-one], for which the IC50 was ≤ 50 nM.
Then `O=C1OC2(CC2)C(c2ccncc2)=C1c1ccc(OCc2ccc3ccccc3n2)cc1` [Example 26, 7-(Pyridin-4-yl)-6-(4-(quinolin-2-ylmethoxy)phenyl)-4-oxaspiro[2.4]hept-6-en-5-one], with > 50 nM; and `COc1ccc(C2=C(c3ccc(OCc4ccc5ccccc5n4)cc3)C(=O)OC2(C)C)cc1` [Example 33, 4-(4-methoxyphenyl)-5,5-dimethyl-3-(4-(quinolin-2-ylmethoxy)phenyl)furan-2(5H)-one], with ≤ 50 nM.
In the case of `CC1(C)NC(=O)C(c2ccc(OCc3ccc4ccccc4n3)cc2)=C1c1ccncc1` [Example 63, 5,5-dimethyl-4-(pyridin-4-yl)-3-(4-(quinolin-2-ylmethoxy)phenyl)-1H-pyrrol-2(5H)-one] it was ≤ 50 nM; in that of `COc1ccc(C2=C(c3ccc(OCc4ccc5ccccc5n4)cc3)C(=O)N(C)C2(C)C)cc1` [Example 73, 4-(4-methoxyphenyl)-1,5,5-trimethyl-3-(4-(quinolin-2-ylmethoxy)phenyl)-1H-pyrrol-2(5H)-one], > 50 nM; in that of `CC1(C)OC(c2ccncc2)=C(c2ccc(OCc3ccc4ccccc4n3)cc2)C1=O` [Example 125, 2,2-dimethyl-5-(pyridin-4-yl)-4-(4-(quinolin-2-ylmethoxy)phenyl) furan-3(2H)-one], ≤ 50 nM.
In the case of `COc1ccc(C2=C(c3ccc(OCc4ccc5ccccc5n4)cc3)C(=O)OC23CC3)cc1` [Example 126, 7-(4-methoxyphenyl)-6-(4-(quinolin-2-ylmethoxy)phenyl)-4-oxaspiro[2.4]hept-6-en-5-one] it was ≤ 50 nM; in that of `CC1(C)OC(c2ccncn2)=C(c2ccc(OCc3ccc4ccccc4n3)cc2)C1=O` [Example 127, 2,2-dimethyl-5-(pyrimidin-4-yl)-4-(4-(quinolin-2-ylmethoxy)phenyl)furan-3(2H)-one], > 50 nM; in that of `CC1(C)OC(c2ccnc(O)c2)=C(c2ccc(OCc3ccc4ccccc4n3)cc2)C1=O` [Example 130, 5-(2-hydroxypyridin-4-yl)-2,2-dimethyl-4-(4-(quinolin-2-ylmethoxy)phenyl)furan-3(2H)-one], ≤ 50 nM.
Turning to `COc1cc(C2=C(c3ccc(OCc4ccc5ccccc5n4)cc3)C(=O)C(C)(C)O2)ccn1` [Example 131, 5-(2-methoxypyridin-4-yl)-2,2-dimethyl-4-(4-(quinolin-2-ylmethoxy)phenyl)furan-3(2H)-one], the IC50 was ≤ 50 nM.
For the compound `CC1(C)OC(c2ccc(O)nc2)=C(c2ccc(OCc3ccc4ccccc4n3)cc2)C1=O` [Example 132, 5-(6-hydroxypyridin-3-yl)-2,2-dimethyl-4-(4-(quinolin-2-ylmethoxy)phenyl)furan-3(2H)-one], the IC50 was ≤ 50 nM.
Then `COc1ccc(C2=C(c3ccc(OCc4ccc5ccccc5n4)cc3)C(=O)C(C)(C)O2)cn1` [Example 133, 5-(6-methoxypyridin-3-yl)-2,2-dimethyl-4-(4-(quinolin-2-ylmethoxy)phenyl)furan-3(2H)-one], with ≤ 50 nM.
As for `COc1ccc(C2=C(c3ccc(OCc4ccc5ccccc5n4)cc3)C(=O)C(C)(C)O2)cc1F` [Example 134, 5-(3-fluoro-4-methoxyphenyl)-2,2-dimethyl-4-(4-(quinolin-2-ylmethoxy)phenyl)furan-3(2H)-one], the IC50 is ≤ 50 nM.
In the case of `COc1ccc(C2=C(c3ccc(OCc4ccc5ccccc5n4)cc3)C(=O)C(C)(C)O2)cc1Cl` [Example 135, 5-(3-Chloro-4-methoxyphenyl)-2,2-dimethyl-4-(4-(quinolin-2-ylmethoxy)phenyl) furan-3(2H)-one] it was ≤ 50 nM; in that of `COc1ccc(C2=C(c3ccc(OCc4ccc5ccccc5n4)cc3)C(=O)C(C)(C)O2)cc1C#N` [Example 137, 5-(5,5-Dimethyl-4-oxo-3-(4-(quinolin-2-ylmethoxy)phenyl)-4,5-dihydrofuran-2-yl)-2-methoxybenzonitrile], ≤ 50 nM.
In the case of `COc1ccc(C2=C(c3ccc(OCc4ccc5ccccc5n4)cc3)C(=O)C(C)(C)O2)cc1` [Example 138, 5-(4-Methoxyphenyl)-2,2-dimethyl-4-(4-(quinolin-2-ylmethoxy)phenyl) furan-3(2H)-one] it was ≤ 50 nM.
For `CC1(C)OC(c2ccc(C#N)cc2)=C(c2ccc(OCc3ccc4ccccc4n3)cc2)C1=O` [Example 141, 4-(5,5-Dimethyl-4-oxo-3-(4-(quinolin-2-ylmethoxy)phenyl)-4,5-dihydrofuran-2-yl)benzonitrile], the IC50 is ≤ 50 nM.
In the case of `CC1(C)OC(c2ccc(Cl)cc2)=C(c2ccc(OCc3ccc4ccccc4n3)cc2)C1=O` [Example 147, 5-(4-Chlorophenyl)-2,2-dimethyl-4-(4-(quinolin-2-ylmethoxy)phenyl) furan-3(2H)-one], the IC50 was ≤ 50 nM.
Take `CC1(C)OC(c2ccc(F)cc2)=C(c2ccc(OCc3ccc4ccccc4n3)cc2)C1=O` [Example 153, 5-(4-fluorophenyl)-2,2-dimethyl-4-(4-(quinolin-2-ylmethoxy)phenyl)furan-3(2H)-one]: the IC50 was ≤ 50 nM.
Then `CC1(C)OC(c2ccc(C(F)(F)F)cc2)=C(c2ccc(OCc3ccc4ccccc4n3)cc2)C1=O` [Example 154, 2,2-dimethyl-4-(4-(quinolin-2-ylmethoxy)phenyl)-5-(4-(trifluoromethyl)phenyl)furan-3(2H)-one], with ≤ 50 nM; and `CC1(C)OC(c2ccc(OC(F)(F)F)cc2)=C(c2ccc(OCc3ccc4ccccc4n3)cc2)C1=O` [Example 155, 2,2-dimethyl-4-(4-(quinolin-2-ylmethoxy)phenyl)-5-(4-(trifluoromethoxy)phenyl)furan-3(2H)-one], with ≤ 50 nM.
Regarding `CC1(C)OC(c2ccc(CC(F)(F)F)cc2)=C(c2ccc(OCc3ccc4ccccc4n3)cc2)C1=O` [Example 156, 2,2-dimethyl-4-(4-(quinolin-2-ylmethoxy)phenyl)-5-(4-(2,2,2-trifluoroethyl)phenyl)furan-3(2H)-one], the IC50 is ≤ 50 nM.
As to `CCOc1ccc(C2=C(c3ccc(OCc4ccc5ccccc5n4)cc3)C(=O)C(C)(C)O2)cc1` [Example 157, 5-(4-ethoxyphenyl)-2,2-dimethyl-4-(4-(quinolin-2-ylmethoxy)phenyl)furan-3(2H)-one], the IC50 was ≤ 50 nM.
`CC(C)Oc1ccc(C2=C(c3ccc(OCc4ccc5ccccc5n4)cc3)C(=O)C(C)(C)O2)cc1` [Example 158, 5-(4-isopropoxyphenyl)-2,2-dimethyl-4-(4-(quinolin-2-ylmethoxy)phenyl)furan-3(2H)-one]: the IC50 is > 50 nM.
As to `CC1(C)OC(c2ccc(OC(F)F)cc2)=C(c2ccc(OCc3ccc4ccccc4n3)cc2)C1=O` [Example 159, 5-(4-(difluoromethoxy)phenyl)-2,2-dimethyl-4-(4-(quinolin-2-ylmethoxy)phenyl)furan-3(2H)-one], the concentration for half-maximal inhibition (IC50) is ≤ 50 nM.
With `CC1(C)OC(c2ccc(OCC3CC3)cc2)=C(c2ccc(OCc3ccc4ccccc4n3)cc2)C1=O` [Example 161, 5-(4-(cyclopropylmethoxy)phenyl)-2,2-dimethyl-4-(4-(quinolin-2-ylmethoxy)phenyl)furan-3(2H)-one], the concentration for half-maximal inhibition (IC50) is > 50 nM.
In the case of `CC1(C)OC(c2ccc(OCC(F)(F)F)cc2)=C(c2ccc(OCc3ccc4ccccc4n3)cc2)C1=O` [Example 162, 2,2-dimethyl-4-(4-(quinolin-2-ylmethoxy)phenyl)-5-(4-(2,2,2-trifluoroethoxy)phenyl)furan-3(2H)-one] it was ≤ 50 nM.
In the case of `CC1(C)OC(c2ccc([N+](=O)[O-])cc2)=C(c2ccc(OCc3ccc4ccccc4n3)cc2)C1=O` [Example 164, 2,2-Dimethyl-5-(4-nitrophenyl)-4-(4-(quinolin-2-ylmethoxy)phenyl) furan-3(2H)-one] it was ≤ 50 nM; in that of `CC1(C)OC(c2ccc3nonc3c2)=C(c2ccc(OCc3ccc4ccccc4n3)cc2)C1=O` [Example 166, 5-(Benzo[c][1,2,5]oxadiazol-5-yl)-2,2-dimethyl-4-(4-(quinolin-2-ylmethoxy)phenyl)furan-3(2H)-one], ≤ 50 nM; in that of `CC1(C)OC(c2ccc3nsnc3c2)=C(c2ccc(OCc3ccc4ccccc4n3)cc2)C1=O` [Example 167, 5-(Benzo[c][1,2,5]thiadiazol-5-yl)-2,2-dimethyl-4-(4-(quinolin-2-ylmethoxy)phenyl)furan-3(2H)-one], ≤ 50 nM.
Then `CC1(C)OC(c2ccc(OC(F)F)c(C#N)c2)=C(c2ccc(OCc3ccc4ccccc4n3)cc2)C1=O` [Example 169, 2-(difluoromethoxy)-5-(5,5-dimethyl-4-oxo-3-(4-(quinolin-2-ylmethoxy)phenyl)-4,5-dihydrofuran-2-yl)benzonitrile], with ≤ 50 nM.
For the compound `CC1(C)OC(c2ccc(-n3cnnn3)cc2)=C(c2ccc(OCc3ccc4ccccc4n3)cc2)C1=O` [Example 170, 5-(4-(1H-tetrazol-1-yl)phenyl)-2,2-dimethyl-4-(4-(quinolin-2-ylmethoxy)phenyl)furan-3(2H)-one], the IC50 is ≤ 50 nM.

Source of the values: patent US8933074B2, “1,2-disubstituted heterocyclic compounds” (FORUM Pharmaceuticals Inc., priority 2008, dated 2015).
